“Also recorded” adds a separate entry of the source.

These results are taken from US12611415B2, “Methods and compounds for treatment of metabolic disease” (Monash University, priority 2019, dated 2026).

What all share (type): in vivo, mouse
Assay [1] relates to mice reintroduced to a high-fat diet. As to the kind of experiment: HFD rechallenge study (FIG. 9). Conditions: Cele-pro (CP30). From the text:
Details regarding treatment times and controls are shown in panel (a). Panels b-e show whole mount immunofluorescence images of the mesenteric afferent lymph vessels and cell nuclei in VAT of several mouse groups. Panels f-i show lymph “leakage” into surrounding VAT due to HFD-induced remodelling of the mesenteric lymphatics, as measured by intramucosal injection of Evans blue dye and lymphangiography. (j-m) n=5 (CFD), 5 (HFD), 6 (HFD rechallenge-Cele-pro (CP30)) and 5-7 (HFD rechallenge-CFD switch). (a-d) n=5 (CFD), 6 (HFD), 8 (HFD rechallenge-Cele-Pro (CP30)) and 7 (HFD rechallenge-CFD switch).

Assay [2] deals with mice with HFD-induced obesity. Nature of the assay: Dose comparison study of Compound I-1 and celecoxib in HFD mice (FIG. 7). From the text:
Timelines and treatment groups are shown in panel a. (b-c) n=8 (CFD), 8 (CP90), 4, (CP30), 7 (CP10), 4 (Cele30), 5 (Cele 10), 6 (Cele3) and 4 (HFD). (c-d) n=7 (CFD), 7 (CP90), 5, (CP30), 7 (CP10), 5 (Cele30), 7 (Cele 10), 6 (Cele3) and 7 (HFD). (e-f) n=12 (CFD), 8 (CP90), 6 (CP30), 7 (CP10), 7 (Cele30), 8 (Cele 10), and 6 (Cele3), 8 (HFD). (g-h) n=10 (CFD), 8 (CP90), 6 (CP30), 7 (CP10), 6 (Cele30), 8 (Cele 10), and 7 (Cele3), 11 (HFD). (i-j) n=4 (CFD), 7 (CP 90), 7 (CP 10), 7 (Cele 10) and 6 (Cele 3). Statistical differences from one-way ANOVA, compared to CFD (baseline). *p<0.05, **p<0.01, ***p<0.005, ****p<0.001.

The subject of assay [3] is C57BL6/J mice fed high fat diet (HFD). Nature of the assay: Celecoxib / Compound I-1 treatment study in HFD fed mice. As to the method:
All animal work was conducted per Australian National Health and Medical Research Council (NHMRC) guidelines for the care and use of animals in research. Seven-week-old male Sprague Dawley rats or C57BL6/J mice were randomized and housed in groups of 2-5 in a temperature-controlled room under specific-pathogen free (SPF) or standard animal housing conditions with free access to food and water.
In the observational studies, mice or rats were fed semi-purified normal chow diet (control fat diet (CFD), 7% w/w fat and 16% total energy from fat, AIN93G, Specialty Feeds Pty Ltd, Australia) or high fat diet (HFD, 36% w/w fat and 59% total energy from fat, SF03-002, Specialty Feeds Pty Ltd, Australia) for a total duration of 6, 15, 23 or 32 weeks to evaluate changes to mesenteric lymph composition, structure and function over time during the progression of obesity. Mice or rats were fed with the same CFD or HFD for 6-10 weeks prior to collection of mesenteric lymph for in vitro incubation with lymphatic endothelial cells (LECs) and adipocytes, respectively.
A “prevention study” and a “treatment study” were also conducted. Both the prevention and treatment studies included mice fed the CFD or HFD for 15 or 23 weeks, as described above. In the prevention study, an additional group of mice was fed the HFD supplemented with celecoxib at a dose equivalent to ˜29 mg/kg/day (based on average food intake) for 15 weeks. In the treatment study, animals were fed the HFD for 15 weeks followed by a HFD supplemented with celecoxib (˜29 mg/kg/day) or Compound I-1 (˜9 mg/kg/day celecoxib equivalents) for 7-8 weeks. The celecoxib was purchased from MedChemExpress (NJ, USA), and Compound I-1 was synthesized consistent with the description in WO2016/023082.
Across all studies, body mass was measured once per week. Oral glucose tolerance tests (OGTTs) were conducted at 5, 14, 22 and/or 31 weeks after commencing feeding mice the HFD or CFD. To perform OGTTs, mice were routinely handled for 2 weeks prior to minimize the stress caused by handling during the experiment. On the day of the OGTT, mice were fasted for 4 h (7-11 am) but still had free access to water. Glucose (50 mg D-glucose in 200 μL water) was administered via oral gavage and a drop of blood was collected from the tail tip at fixed time points (0, 15, 30, 60, 90 and 120 mins). Blood glucose was measured using a One-touch glucometer (AccuCheck Performa, Roche, Switzerland). Plasma was separated from the remaining blood sample via centrifugation and reserved for measurement of plasma insulin concentrations via ELISA as described above.
At the end of all experiments, mice were euthanised via cervical dislocation and rats were euthanised via intracardiac injection of sodium pentobarbitone (100 mg). Organs and tissues, including the lymph nodes and adipose tissue depots, were carefully collected. The mass of adipose tissue depots was weighed to determine adiposity.
Mesenteric adipose tissue samples (for lymphatic capillary and mesenteric lymphatic vessel analysis) and small intestine samples (for villi and lacteal analysis) were collected with fine forceps. Whole mount adipose tissue was cut into ˜3 mm×3 mm×2 mm pieces and whole mount small intestine was cut into 1.5 cm segments. Immediately after collection, the tissue samples were fixed in 4% paraformaldehyde in PBS at 4° C. overnight. Fat associated lymph clusters (FALCs) were identified by intraperitoneal injection of FluoSphere Carboxylate-Modified Nanospheres, 100 nm, yellow-green (505/515, Invitrogen, CA, USA) and collected with fine forceps under a Zeiss Stemi 2000-CS surgical microscope (2.5× magnification) with a fluorescence adaptor (Nightsea, MA, USA). The fluorescent light was filtered through a cyan color light filter (Electron Microscopy Science, PA, USA) to visualize the nanospheres and thus the FALCs. FALCs were cleaned of adipose tissue after collected and placed whole in 4% paraformaldehyde in PBS at 4° C. overnight. […]

Where [4] appears, read: Compound I-1 at doses as low as 10 mg/kg (~3 mg/kg celecoxib), ~10-fold lower dose relative to celecoxib.
[5] abbreviates: various doses of Compound I-1 versus higher corresponding doses of celecoxib.
[6] abbreviates: Compound I-1 ~9 mg/kg/day celecoxib equivalents, celecoxib at a 3.2-fold higher dose.
Where [7] appears, read: HFD 15 weeks, then 7 weeks drug in HFD feed.
Where [8] appears, read: HFD 15 weeks, then 7 weeks drug in HFD feed, Compound I-1 ~9 mg/kg/day celecoxib equivalents, celecoxib ~29 mg/kg/day.

On to `CCCCCCCCCCCCCCCC(=O)OCC(COC(=O)CCCCCCCCCCCCCCC)OC(=O)CCCCCCCCC(=O)Oc1cc(C)cc(C)c1C(C)(C)CC(=O)NS(=O)(=O)c1ccc(-n2nc(C(F)(F)F)cc2-c2ccc(C)cc2)cc1` [Compound I-1], for which, in assay [1], the “beneficial effects after reintroducing the mice to a high-fat diet (HFD rechallenge)” value was “persist”. In assay [2] (setting [4]), the VAT lymph leakage result is recorded as “superior; also recorded: reverses, more effectively”; the “restoration of glycaemic control” value is given as “superior”; the “reversal of VAT lymphangiogenesis (lymph vessel branching)” value is “superior; also recorded: reverses, more effectively”. In assay [2] (compared with a 3-fold higher dose of celecoxib), the “reducing fasting plasma triglycerides” value is reported as “superior”. For the same compound, in assay [2] (setting [5]), the “HFD-induced obesity, weight” value is recorded as “reverses, more effectively”; the “changes to lymph composition” value is recorded as “reverses, more effectively”; the insulin resistance result is listed as “reverses, more effectively”; the oral glucose tolerance result is “reverses, more effectively”. Also, in assay [3] (setting [6]), the “body weight gain induced by HFD (obesity)” value is reported as “significantly reduced; also recorded: reverses, more effectively”; the “hyperinsulinemia in the fasted state and after glucose challenge (insulin resistance)” value was “significantly improved; also recorded: reverses, more effectively”; the oral glucose tolerance result was “significantly improved”. Besides, the “SAT and VAT accumulation” value in assay [3] (Compound I-1 ~9 mg/kg/day celecoxib equivalents, compared with celecoxib at a 3.2-fold higher dose) is “more significantly reduced”. In addition, in assay [3] (setting [7]), the “cholesterol levels in mesenteric lymph” value is listed as “decreased”; the “lymph lipid profile (lipidomic analysis of mesenteric lymph) / lymph composition” value is given as “shift in the lymph lipid profile from a HFD-like toward a more CFD-like profile; also recorded: reverses, more effectively”; the “total concentrations of triglyceride, phospholipid and glucose in mesenteric lymph” value is recorded as “trends toward a decrease”; the “total free fatty acid (FFA) in mesenteric lymph” value is recorded as “significantly increased”. Moreover, in assay [3] (setting [8]), the “immune cell numbers in mesenteric lymph nodes reversed to levels similar to CFD mice” value is on record as “successfully reversed”; the “immune cells in the mesenteric lymph fluid” value is on record as “reduced”; the “lymph leakage into VAT” value is reported as “reversed; also recorded: reverses, more effectively”; the “mesenteric lymph levels of PGE2” value was “reduced”. In addition, in assay [3] (setting [8]), the “mesenteric lymph levels of VEGF-C” value was “below the limit of quantification; also recorded: reverses, more effectively” and the mesenteric lymphatic branching result is given as “reversed; also recorded: reverses, more effectively”. Besides, the “mesenteric lymphatic dysfunction, visceral obesity, inflammation, glucose intolerance, and insulin resistance associated with obesity” value in assay [3] (compared with non-lymph-targeted celecoxib) is given as “reverse, more effectively”.
